Test results as given in US20070185093A1, “Benzotriazepine derivatives and their use as gastrin and cholecystokinin receptor ligands” (priority 2003, published 2007).

Target: T1, human gastrin (CCK2) receptors (Homo sapiens, UniProt P32239)
T1 construct: amplified by PCR (polymerase chain reaction) from the start codon to the stop codon; expressed in transfected cells
T1 sequence (P32239 1-447): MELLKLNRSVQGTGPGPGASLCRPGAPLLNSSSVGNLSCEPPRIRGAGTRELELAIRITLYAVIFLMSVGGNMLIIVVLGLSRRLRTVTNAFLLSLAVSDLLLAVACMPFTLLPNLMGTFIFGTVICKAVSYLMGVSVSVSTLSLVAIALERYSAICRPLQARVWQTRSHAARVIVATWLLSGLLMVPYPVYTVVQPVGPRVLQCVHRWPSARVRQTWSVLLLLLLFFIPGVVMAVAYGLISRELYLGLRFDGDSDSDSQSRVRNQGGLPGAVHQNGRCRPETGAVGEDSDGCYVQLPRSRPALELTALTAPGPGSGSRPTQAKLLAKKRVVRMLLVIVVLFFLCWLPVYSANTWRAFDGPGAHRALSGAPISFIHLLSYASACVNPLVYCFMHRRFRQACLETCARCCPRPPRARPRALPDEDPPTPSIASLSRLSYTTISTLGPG
Assay: Displacement of [125I]-BH-CCK-8S from human CCK2 receptors cloned into NIH3T3 cells (membranes)
Assay type: binding
Settings: hCCK2 receptor, NIH3T3 clone 7 membranes, [125I]-BH-CCK-8S 200 pM, 150 min at 21° C.; ± s.e. mean; read-out: CCK2 (pKI) (converted)
Description: A number of compounds were tested at human gastrin (CCK2) receptors which have been cloned into an NIH3T3 cell line as follows:
Stable clones expressing hCCK2R were screened for their ability to specifically bind [^125I]-BH-CCK-8S in tissue concentration curve studies (0.3×10^4-1×10^6 cells per tube) using the assay conditions described below. […] In addition there was a direct linear correlation between the amount of specific bound label and the cell concentration up to and including 2.5×10^5 cells per ml. Based on the above, this clone was chosen for expansion and fall binding characterisation.
Cultured clone 7 cells were stored as frozen pellets at −70° C. until required. Cell pellets were thawed in CCK2 assay buffer ((mM): 10 Hepes; 130 NaCl; 5 MgCl2; 4.7 KCl; 1 EGTA (pH7.2 at 21° C.) with 0.125 g Bacitracin added to each litre), and homogenised using a Polytron (4×1 s). The resulting membrane preparation was centrifuged at 39,800 g for 15 min at 4° C. Each cell pellet was re-suspended in fresh buffer and re-centriflged as above. The final pellet was re-suspended by homogenisation (Teflon-in-glass), to the appropriate membrane concentration.
For saturation and competition studies, the cell membranes prepared as in step d (3×10^4 cells per 400 μl) were incubated for 150 min at 21° C. in a final volume of 0.5 ml with CCK2 assay buffer containing [^125I]-BH-CCK-8S (50 μl; 200 pM). Total and non-specific binding of [^125I]-BH-CCK-8S were defined, respectively using 50 μl of buffer and 50 μl of 10 μM YM022. The assays were terminated by rapid filtration through pre-soaked Whatman GF/B filters which were washed (3×3 ml) with ice-cold 50 mM Tris HCl (pH7.4 @ 4° C.). Filters were transferred to plastic gamma counter vials and bound radioactivity determined by counting (1 min) in a Clini-gamma counter.
The binding of [^125I]-BH-CCK-8S to the hCCK2 receptor isoform was saturable. […] Saturation data were analysed using the curve-fitting programmes, Radlig and Ligand.
A number of compounds of the invention as well as reference compounds were tested for their ability to displace [^125I]-BH-CCK-8S from the receptors prepared as above. Briefly, dilution and addition of test compounds, radioligand and cell membranes were performed using a Beckman Biomek 2000. The ability of compounds to inhibit the specific binding of to hCCK2 receptors was determined in triplicate over a range of concentrations at half-log intervals. Total and non-specific binding was determined for each compound. Each compound was tested in a minimum of three experiments. Competition data were fitted to the Hill equation using Graph-pad Prism software to obtain estimates of the IC50 (mid-point location parameter) and nH (mid-point slope parameter). Dissociation constants (KI) were determined using the Cheng & Prusoff equation (1973) to correct for the receptor occupancy by the radioligand. All compounds were dissolved in DMF to give a stock concentration of either 1 or 10 mM and subsequent dilutions were made in assay buffer.

Ki | Compound
17.8 nM | CC(C)(C)C(=O)CN1C(=O)N(CC(=O)Nc2cccc(C(=O)O)c2)NC(C2CCCCC2)c2ccccc21 (racemic) [Example 1, (+/−)-3-{2-[5-Cyclohexyl-1-(3,3-dimethyl-2-oxo-butyl)-2-oxo-1,2,4,5-tetrahydro-3H-1,3,4-benzotriazepin-3-yl]-acetylamino)-benzoic acid]
16.2 nM | CNc1cccc(NC(=O)CN2NC(C3CCCCC3)c3ccccc3N(CC(=O)C(C)(C)C)C2=O)c1 (racemic) [Example 2, (+/−)-2-[5-Cyclohexyl-1-(3,3-dimethyl-2-oxo-butyl)-2-oxo-1,2,4,5-tetrahydro-3H-1,3,4-benzotriazepin-3-yl]-N-(3-methylamino-phenyl)-acetamide]
44.7 nM | Cc1cccc(NC(=O)CN2NC(C3CCCCC3)c3ccccc3N(CC(=O)C(C)(C)C)C2=O)c1 (racemic) [Example 3, (+/−)-2-[5-Cyclohexyl-1-(3,3-dimethyl-2-oxo-butyl)-2-oxo-1,2,4,5-tetrahydro-3H-3H-1,3,4-benzotriazepin-3-yl]-N-m-tolyl-acetamide]
1.48 nM | O=C(CN1NC(C2CCCCC2)c2ccccc2N(CC(=O)C2CCCC2)C1=O)Nc1cccc(C(=O)O)c1 (racemic) [Example 4, (+/−)-3-{2-[5-Cyclohexyl-1-(2-cyclopentyl-2-oxo-ethyl)-2-oxo-1,2,4,5-tetrahydro-3H-1,3,4-benzotriazepin-3-yl]-acetylamino}-benzoic acid]
79.4 nM | O=C(O)Cc1cccc(NC(=O)CN2NC(C3CCCCC3)c3ccccc3N(CC(=O)C3CCCC3)C2=O)c1 (racemic) [Example 5, (+/−)-(3-{2-[5-Cyclohexyl-1-(2-cyclopentyl-2-oxo-ethyl)-2-oxo-1,2,4,5-tetrahydro-3H-1,3,4-benzotriazepin-3-yl]-acetylamino}-phenyl)-acetic acid]
0.759 nM | O=C(O)CCc1cccc(NC(=O)CN2NC(C3CCCCC3)c3ccccc3N(CC(=O)C3CCCC3)C2=O)c1 (racemic) [Example 6, (+/−)-3-(3-(2-[5-Cyclohexyl-1-(2-cyclopenlyl-2-oxo-ethyl)-2-oxo-1,2,4,5tetrahydro-3H-1,3,4-benzotriazepin-3-yl]-acetylamino}-phenyl)-propionic acid]
2.63 nM | CNc1cccc(NC(=O)CN2NC(C3CCCCC3)c3ccccc3N(CC(=O)C3CCCC3)C2=O)c1 (racemic) [Example 7, (+/−)-2-[5-Cyclohexyl-1-(2-cyclopentyl-2-oxo-ethyl)-2-oxo-1,2,4,5-tetrahydro-3H-1,3,4-benzotriazepin-3-yl]-N-(3-methylamino-phenyl)-acetamide]
7.76 nM | CC1(C(=O)CN2C(=O)N(CC(=O)Nc3cccc(C(=O)O)c3)NC(C3CCCCC3)c3ccccc32)CCCCC1 (racemic) [Example 8, (+/−)-3-(2-{5-Cyclohexyl-1-[2-(1-methyl-cyclohexyl)-2-oxo-ethyl]-2-oxo-1,2,4,5-tetrahydro-3H-1,3,4-benzotriazepin-3-yl}-acetylamino)-benizoic acid]
2.24 nM | O=C(CN1NC(C2CCCCC2)c2ccccc2N(CC(=O)C2CCCCC2)C1=O)Nc1cccc(C(=O)O)c1 (racemic) [Example 9, (+/−)-3-{2-[5-Cyclohexyl-1-(2-cyclohexyl-2-oxo-ethyl)-2-oxo-1,2,4,5-tetrahydro-3H-1,3,4-benzotriazepin-3-yl]-acetylamino}-benzoic acid]
0.363 nM | O=C(O)Cc1cccc(NC(=O)CN2NC(C3CCCCC3)c3ccccc3N(CC(=O)C3CCCCC3)C2=O)c1 (racemic) [Example 10, (+/−)-(3-{2-[5-Cyclohexyl-1-(2-cyclohexyl-2-oxo-ethyl)-2-oxo-1,2,4,5-tetrahydro-3H-1,3,4-benzotriazepin-3-yl]-acetylamino}-phenyl)-acetic acid]
0.501 nM | O=C(CN1NC(C2CCCCC2)c2ccccc2N(CC(=O)C2CCCC2)C1=O)Nc1cccc(-c2nnn[nH]2)c1 (racemic) [Example 15, (+/−)2-[5-Cyclohexyl-1-(2-cyclopentyl-2-oxo-ethyl)-2-oxo-1,2,4,5-tetrahydro-3H-1,3,4-benzotriazepin-3-yl]-N-[3-(2H-tetrazol-5-yl)-phenyl]-acetamide]
0.0794 nM | O=C(CN1NC(C2CCCCC2)c2ccccc2N(CC(=O)C2CCCC2)C1=O)Nc1cccc(-c2nc(=O)o[nH]2)c1 (racemic) [Example 16, (+/−)-2-[5-Cyclohexyl-1-(2-cyclopentyl-2-oxo-ethyl)-2-oxo-1,2,4,5-tetrahydro-3H-1,3,4-benzotriazepin-3-yl]-N-[3-(5-oxo-2,5-dihydro-[1,2,4]oxadiazol-3-yl)-phenyl]-acetamide]
12.6 nM | O=C(CN1NC(C2CCCCC2)c2ccccc2N(CC(=O)C2CCCC2)C1=O)Nc1cccc(C(=O)O)c1 (single isomer, unassigned; (+)) [Example 11, (+)-3-{2-[5-Cyclohexyl-1-(2-cyclopentyl-2-oxo-ethyl)-2-oxo-1,2,4,5-tetrahydro-3H-1,3,4-benzotriazepin-3-yl]-acetylamino}-benzoic acid]
3.98 nM | O=C(O)Cc1cccc(NC(=O)CN2NC(C3CCCCC3)c3ccccc3N(CC(=O)C3CCCCC3)C2=O)c1 (single isomer, unassigned; (+)) [Example 13, (+)-(3-{2-[5-Cyclohexyl-1-(2-cyclohexyl-2-oxo-ethyl)-2-oxo-1,2,4,5-tetrahydro-3H-1,3,4-benzotriazepin-3-yl]-acetylamino}-phenyl)-acetic acid]
1.58 nM | O=C(CN1NC(C2CCCCC2)c2ccccc2N(CC(=O)C2CCCC2)C1=O)Nc1cccc(C(=O)O)c1 (single isomer, unassigned; (-)) [Example 12, (−)-3-{2-[5-Cyclohexyl-1-(2-cyclopentyl-2-oxo-ethyl)-2-oxo-1,2,4,5-tetrahydro-3H-1,3,4-benzotriazepin-3-yl]-acetylamino}-benzoic acid]
0.1 nM | O=C(O)Cc1cccc(NC(=O)CN2NC(C3CCCCC3)c3ccccc3N(CC(=O)C3CCCCC3)C2=O)c1 (single isomer, unassigned; (-)) [Example 14, (−)-(3-{2-[5-Cyclohexyl-1-(2-cyclohexyl-2-oxo-ethyl)-2-oxo-1,2,4,5-tetrahydro-3H-1,3,4-benzotriazepin-3-yl]-acetylamino}-phenyl)-acetic acid]
